Measured values from patent US20240050735A1, “SYSTEMS AND METHODS FOR TREATING AND INHIBITING WOUND INFECTIONS” (priority 2020, published 2024).
Where “and” joins values, the source holds several entries; their conditions need not be identical. Identical values can stand only once. Counter-ions that a name gives are not always drawn. Like-named read-outs stand apart in the source and are kept apart here.

Format: in vitro ADME
Conditions: for permeation coefficient (Pc): 1 mg mL^−1 VAN; for accumulated concentration in wound tissue: 1 mg mL^−1 VAN loaded
Protocol: Investigations were also performed to determine the iontophoretic antibiotic delivery efficiency of the HIC-based biofilm treatment system 100 using high current intensities. These investigations included an ex vivo antibiotic delivery study using the same MRSA biofilm-infected porcine skin wound model as in the previous section. Vancomycin (VAN) was used here as a model drug, since it is the FDA-approved antibiotic and is the clinical gold standard for combating S. aureus infections.
First the VAN delivery efficiency was tested at different current intensities (from 0 mA cm^−2 (passive diffusion) to 75 mA cm^−2) applied by the HIC-based biofilm treatment system 100 for 1 hour. The drug/buffer chamber 114 of the working device 104 was loaded with 1 mg mL^−1 VAN in this study. The anode side was used as the working device 104 because VAN required anodal iontophoresis. The accumulated concentration of VAN in biofilm infected skin wound was measured immediately after iontophoresis using high performance liquid chromatography (HPLC). […] When 75 mA cm^−2 was used, the VAN concentration in wound tissue increased to 4.5±0.52 mg g^−1. The VAN concentration in wound tissue after passive diffusion, 0.5 mA cm^−2, and 19 mA cm^−2 iontophoresis were also measured. However, they could not be distinguished from the background interference of the residual biofilm components, so no quantitative results were obtained (data not shown). Importantly, the VAN concentration delivered by 75 mA cm^−2 iontophoresis for 1 hour exceeded the minimal biofilm eradication concentration (MBEC) of VAN reported for MRSA biofilm, which was 4 mg g^−1. The ability to deliver a lethal antibiotic concentration into biofilm-infected wounds within a short period of time was critical for biofilm treatment as it would minimize the chance for bacteria to develop adaptive tolerance.
The fetal pig skin samples (approximately 30×30 mm) were immersed in 10% (v/v) bleach for 5 minutes after hair removal. Then, skin samples were sterilized in 70% ethanol for 30 minutes. The surface of skin sample was further cleaned by 10% povidone-iodine and 70% isopropanol to prevent contamination. A 6-mm disposable biopsy punch was used to create an excisional wound. Samples were put into sterile 10-cm petri-dishes filled with sterile PBS (6 mL). The wound was then inoculated with 1×10^8 CFU mL^−1 MRSA bacteria solution (20 μL). The bacteria were allowed to grow in a 37° C. Heratherm™ compact microbiological incubator (ThermoFischer Scientific™, Waltham, Mass., USA) for 48 hours to form mature biofilms.
To evaluate the antibiotic delivery efficacy of VAN by high-intensity current, biofilm infected fetal pig skin wound was used. The DAP test setup was same as that of VAN, except no PBS chamber 122 was used. Instead, the inner surface of the skin wound contacted directly to the hydrogel 120 of the counter device 106. To evaluate the effect of electrical current intensity on the drug delivery efficacy, different current intensities from 0 to 75 mA cm^−2 were applied. To evaluate the effect of loading concentration of antibiotics, different concentrations of VAN and DAP from 1 mg mL^−1 to 10 mg mL^−1 were used. Since VAN is […] and DAP is negatively charged under physiological environment, anode HIC-based device was placed facing biofilm for VAN iontophoresis, and cathode HIC-based device was placed facing biofilm for DAP iontophoresis. Samples were collected immediately after different treatments. The concentrations of antibiotics delivered into skin wound samples were measured by high-performance liquid chromatography (HPLC). The permeation coefficient (Pc, cm s^−1) was then calculated (Pc=J/C, where J is antibiotic delivery flux in tissue samples (μg (cm^2s)^−1, C is the loading concentration of antibiotic solution (μg m L^−1)). […]

For `CN[C@H](CC(C)C)C(=O)N[C@H]1C(=O)N[C@@H](CC(N)=O)C(=O)N[C@H]2C(=O)N[C@H]3C(=O)N[C@H](C(=O)N[C@H](C(=O)O)c4cc(O)cc(O)c4-c4cc3ccc4O)[C@H](O)c3ccc(c(Cl)c3)Oc3cc2cc(c3O[C@@H]2O[C@H](CO)[C@@H](O)[C@H](O)[C@H]2O[C@H]2C[C@](C)(N)[C@H](O)[C@H](C)O2)Oc2ccc(cc2Cl)[C@H]1O` [VAN, Vancomycin hydrochloride], the “conventional Pc lower than Pc by 75 mA cm^−2 HIC iontophoresis” value (0.31 mA cm^−2 conventional vs 75 mA cm^−2 HIC) was 980 times, the “permeation coefficient (Pc)” value (38 mA cm^−2, 1 hour) was 112.0±20.97 ×10^−6 cm s^−1 and the “accumulated concentration in wound tissue” value (38 mA cm^−2, 1 hour) was 2.5 ± 0.32 mg/g. The “permeation coefficient (Pc)” value (75 mA cm^−2, 1 hour) was 216.5±18.96 ×10^−6 cm s^−1, the “accumulated concentration in wound tissue” value (75 mA cm^−2, 1 hour, hydrochloride) was 4.5 ± 0.52 mg/g and 4.5 mg/g and the “concentration in wound tissue” value (75 mA cm^−2, 1 hour, 5 mg mL^−1 VAN loaded) was “more than 16 mg g^−1”. The “concentration in wound tissue” value (75 mA cm^−2, 1 hour, 10 mg mL^−1 VAN loaded) was “more than 16 mg g^−1”.
